# “Also recorded” adds a separate entry of the source. Read-outs that look alike come from different tables or passages of the source.
# How the values were obtained:
# [1] = system: secondary alcohol dehydrogenase enzyme; test: Substrate and cofactor specificity of the purified enzyme; type: biochemical, Pseudomonas fluorescens NRRL B-1244; conditions: for oxidation rate / activity as substrate (in words): purified enzyme, NAD^+
# Method: The rate of dehydrogenation of the primary and secondary alcohols tested was measured with a fluorescence spectrophotometer by following the formation of reduced NAD^+ (excitation at 340 nm, emission at 460 nm). […] The reaction was initiated by the addition of the substrate alcohol. The product aldehydes or ketones were identified by retention time comparisons and cochromatography with authentic standards using flame ionization gas chromatography (a stainless steel column was maintained isothermally at 110 °C). Specific oxidation rates were expressed as nmoles of product formed per min. per mg of protein.
# The purified enzyme from step 5 of Example 2 was used in the procedure of Example 1 to oxidize primary and secondary alcohols, diols and aldehydes. The specificity of the dehydrogenase for the substrates is expressed as nmoles of product formed per min. per 85 µg of protein and as a percentage relative to the oxidation rate of 2-propanol (designated as 100% oxidation rate) in Table V.
# [2] = system: secondary alcohol dehydrogenase enzyme; test: Inhibition of secondary alcohol dehydrogenase activity (oxidation of 2-propanol in the presence of potential inhibitors); type: biochemical, Pseudomonas fluorescens NRRL B-1244
# Method: The activity of the NAD^+-linked secondary alcohol dehydrogenase in each fraction was measured using a fluorescence spectrophotometer by monitoring the formation of reduced NAD^+ (excitation at 340 nm, emission at 460 nm). The assay system (3 ml) contained 150 µmole sodium phosphate buffer pH 7.0, 1.0 µmole NAD^+, a given amount of enzyme fraction, and 20 µ cmole 2-propanol substrate. […] Protein concentrations in each fraction were determined by the method of O.H. Lowry et al., J. Biol. Chem., 193, 255 (1951).
# The oxidation of 2-propanol by the purified extract of secondary alcohol dehydrogenase enzyme was conducted in the presence of a lmM concentration of one of the metal chelating agents and thio-reagents listed in Table VI.
# [3] = system: secondary alcohol dehydrogenase
# [4] = system: secondary alcohol dehydrogenase enzyme; type: biochemical, Pseudomonas fluorescens NRRL B-1244
# Method: The effect of NAD^+ and 2-propanol concentrations on the enzyme activity was studied at 25 °C in 0.05 M sodium phosphate buffer pH 7.0. 2-Propanol was kept at a saturated level (6.6 mM) for the determination of the Km value for NAD^+; and NAD^+ was maintained at a saturated level (lmM) for determining the Km value for 2-propanol.
# [5] = 1 mM inhibitor, oxidation of 2-propanol by purified enzyme
smiles,measurement,setting,value
"CC(O)CCO (stereo not shown) [1,3-butanediol]",oxidation rate / activity as substrate (in words),[1],highest activity
"c1cnc2c(c1)ccc1cccnc12 [1,10-phenanthroline]",% Inhibition,[2]; [5],100%
CCC(C)O (stereo not shown) [2-butanol],oxidation rate / activity as substrate (in words),[1],highest oxidation rate; also recorded: highest activity
same,% of original activity,[3]; 0.9 M 2-butanol solution,40%
same,% of its activity,[3]; 1.1 M 2-butanol solution,30%
CC(C)O [2-propanol],oxidation rate / activity as substrate (in words),[1],highest activity
same,Km,"[4]; pH 7, read-out: Km value for 2-propanol",85 µM
"O=C(O)c1cc(SSc2ccc([N+](=O)[O-])c(C(=O)O)c2)ccc1[N+](=O)[O-] [5,5'-dithiobis-(2-nitrobenzoate)]",inhibition of enzyme activity (in words),[2],inhibited
same,% Inhibition,[2]; [5],100%
O=[N+]([O-])c1ccc(O)c2ncccc12 [5-nitro-8-hydroxyquinoline],inhibition of enzyme activity (in words),[2],inhibited
same,% Inhibition,[2]; [5],100%
[Cu+2] [Cu^2+],% Inhibition,[2]; [5],10%
[Hg+2] [Hg^2+],% Inhibition,[2]; [5],100%
CCN1C(=O)C=CC1=O [N-ethylmaleimide],% Inhibition,[2]; [5],33%
NC(=O)c1ccc[n+]([C@@H]2O[C@H](COP(=O)([O-])OP(=O)(O)OC[C@H]3O[C@@H](n4cnc5c(N)ncnc54)[C@H](OP(=O)(O)O)[C@@H]3O)[C@@H](O)[C@H]2O)c1 [NADP^+],oxidation rate with NADP^+ as cofactor relative to NAD^+,[1]; NADP^+ as cofactor,about 50%
"NC(=O)c1ccc[n+]([C@@H]2O[C@H](COP(=O)([O-])OP(=O)(O)OC[C@H]3O[C@@H](n4cnc5c(N)ncnc54)[C@H](O)[C@@H]3O)[C@@H](O)[C@H]2O)c1 [NAD^+, nicotinamide adenine dinucleotide]",Km,"[4]; 25°C, 0.05 M sodium phosphate buffer pH 7.0, 2-propanol saturated (6.6 mM), read-out: Km value for NAD^+",8.2 µM
CC(N)=O [acetamide],% Inhibition,[2]; [5],0%
CC(C)=O [acetone],rate of reduction of acetone to propanol relative to the forward reaction,[1],about 20%
"O=C(O)CN(CCN(CC(=O)O)CC(=O)O)CC(=O)O [ethylenediamine tetraacetic acid (EDTA), ethylenediamine tetraacetic acid]",% Inhibition,[2]; [5],0%
c1c[nH]cn1 [imidazole],% Inhibition,[2]; [5],0%
O=C(O)CI [iodoacetic acid],% Inhibition,[2],0%
O=C(O)c1cc[c]([Hg+])cc1.[OH-] [p-hydroxymercuribenzoate],inhibition of enzyme activity (in words),[2],inhibited
same,% Inhibition,[2]; [5],100%
NNC(N)=S [thiosemicarbazide],% Inhibition,[2]; [5],44%
"c1ccc(-c2ccccn2)nc1 [α,α'-dipyridyl]",% Inhibition,[2]; [5],40%
